In ChEMBL document CHEMBL1208782, “Synthesis and pharmacological validation of a novel series of non-steroidal FXR agonists” (Bioorg Med Chem Lett, 2010):

Assays:
Type in all cases: functional, cell-based
[1] = molecular target: T1, Retinoic acid receptor beta (Homo sapiens) (UniProt P10826); assay: Agonist activity at RARbeta-LBD expressed in HEK293 cells assessed as Gal4-DBD interaction by cellular mammalian one hybrid assay relative to retinoic acid
T1 sequence (whole entry): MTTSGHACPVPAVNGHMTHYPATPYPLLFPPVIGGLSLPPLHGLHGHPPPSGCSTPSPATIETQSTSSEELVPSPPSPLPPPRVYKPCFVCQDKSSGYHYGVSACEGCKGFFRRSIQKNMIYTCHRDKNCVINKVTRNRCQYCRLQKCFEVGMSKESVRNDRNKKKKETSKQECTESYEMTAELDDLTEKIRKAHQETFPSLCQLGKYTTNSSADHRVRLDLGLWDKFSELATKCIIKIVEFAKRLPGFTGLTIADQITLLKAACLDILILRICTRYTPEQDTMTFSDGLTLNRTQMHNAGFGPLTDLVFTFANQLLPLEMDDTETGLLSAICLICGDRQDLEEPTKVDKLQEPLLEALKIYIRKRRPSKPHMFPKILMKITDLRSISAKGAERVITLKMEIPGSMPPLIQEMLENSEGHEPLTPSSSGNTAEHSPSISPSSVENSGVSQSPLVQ

[2] = molecular target: T2, Retinoic acid receptor alpha (Homo sapiens) (UniProt P10276); assay: Agonist activity at RARalpha-LBD expressed in HEK293 cells assessed as Gal4-DBD interaction by cellular mammalian one hybrid assay relative to retinoic acid
T2 sequence (whole entry): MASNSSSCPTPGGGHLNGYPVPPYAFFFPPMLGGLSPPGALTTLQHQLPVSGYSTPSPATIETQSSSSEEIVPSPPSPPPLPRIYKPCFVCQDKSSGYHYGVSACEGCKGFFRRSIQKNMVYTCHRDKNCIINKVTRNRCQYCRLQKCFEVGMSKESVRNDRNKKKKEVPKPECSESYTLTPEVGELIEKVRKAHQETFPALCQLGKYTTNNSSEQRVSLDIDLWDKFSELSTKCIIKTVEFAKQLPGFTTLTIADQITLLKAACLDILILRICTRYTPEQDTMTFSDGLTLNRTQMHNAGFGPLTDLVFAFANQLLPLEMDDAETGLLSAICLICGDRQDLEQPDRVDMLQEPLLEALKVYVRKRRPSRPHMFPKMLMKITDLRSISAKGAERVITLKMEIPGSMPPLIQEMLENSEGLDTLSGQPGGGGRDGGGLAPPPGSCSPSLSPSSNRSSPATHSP

[3] = molecular target: T3, Peroxisome proliferator-activated receptor delta (Homo sapiens) (UniProt Q03181); assay: Agonist activity at PPAR-beta/delta-LBD expressed in HEK293 cells assessed as Gal4-DBD interaction by cellular mammalian one hybrid assay relative to control
T3 sequence (whole entry): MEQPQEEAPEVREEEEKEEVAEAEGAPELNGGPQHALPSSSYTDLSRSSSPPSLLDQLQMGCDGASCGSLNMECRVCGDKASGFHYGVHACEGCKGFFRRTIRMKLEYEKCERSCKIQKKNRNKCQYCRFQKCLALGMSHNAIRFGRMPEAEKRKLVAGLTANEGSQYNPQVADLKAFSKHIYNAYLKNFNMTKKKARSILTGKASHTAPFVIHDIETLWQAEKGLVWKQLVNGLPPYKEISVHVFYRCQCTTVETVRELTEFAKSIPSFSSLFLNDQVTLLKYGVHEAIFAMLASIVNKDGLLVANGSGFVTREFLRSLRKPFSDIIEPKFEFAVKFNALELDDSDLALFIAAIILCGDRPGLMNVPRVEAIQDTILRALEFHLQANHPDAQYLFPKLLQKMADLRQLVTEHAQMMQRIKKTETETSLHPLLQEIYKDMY

[4] = molecular target: T4, Retinoic acid receptor RXR-alpha (Homo sapiens, UniProt P19793); assay: Agonist activity at RXRalpha-LBD expressed in HEK293 cells assessed as Gal4-DBD interaction by cellular mammalian one hybrid assay
T4 sequence (P19793 whole entry): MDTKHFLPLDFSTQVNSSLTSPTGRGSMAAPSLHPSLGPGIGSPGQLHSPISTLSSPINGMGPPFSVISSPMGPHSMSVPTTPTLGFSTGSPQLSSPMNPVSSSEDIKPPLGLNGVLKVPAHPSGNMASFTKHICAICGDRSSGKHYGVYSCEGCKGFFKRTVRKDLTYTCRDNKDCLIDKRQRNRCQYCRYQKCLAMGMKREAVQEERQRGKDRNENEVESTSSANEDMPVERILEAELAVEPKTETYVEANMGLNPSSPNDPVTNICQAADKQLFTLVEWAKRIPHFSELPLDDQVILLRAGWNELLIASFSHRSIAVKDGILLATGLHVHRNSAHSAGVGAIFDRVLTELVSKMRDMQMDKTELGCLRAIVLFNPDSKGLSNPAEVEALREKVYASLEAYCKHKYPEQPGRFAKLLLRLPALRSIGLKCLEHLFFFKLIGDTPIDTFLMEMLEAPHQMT

[5] = molecular target: T5, Bile acid receptor (Homo sapiens) (UniProt Q96RI1); assay: Agonist activity at human full length FXR transfected in HEK293 cells coexpressing pTRexDest/pGL2promotor assessed as luciferase activity by direct reporter cellular assay relative to GW-4064
T5 sequence (whole entry): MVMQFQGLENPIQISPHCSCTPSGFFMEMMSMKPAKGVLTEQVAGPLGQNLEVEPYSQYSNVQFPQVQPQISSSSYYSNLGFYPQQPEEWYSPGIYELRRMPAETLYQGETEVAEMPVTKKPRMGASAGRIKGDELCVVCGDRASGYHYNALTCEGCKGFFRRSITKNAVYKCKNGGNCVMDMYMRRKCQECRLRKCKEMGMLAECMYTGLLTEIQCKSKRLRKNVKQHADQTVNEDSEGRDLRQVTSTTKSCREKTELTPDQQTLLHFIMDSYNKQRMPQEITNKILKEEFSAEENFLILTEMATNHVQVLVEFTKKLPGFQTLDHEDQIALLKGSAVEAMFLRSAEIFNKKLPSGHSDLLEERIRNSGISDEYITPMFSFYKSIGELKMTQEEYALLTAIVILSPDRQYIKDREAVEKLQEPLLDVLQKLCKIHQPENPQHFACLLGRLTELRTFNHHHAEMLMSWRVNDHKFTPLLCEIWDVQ

[6] = molecular target: T6, Retinoic acid receptor RXR-alpha (Homo sapiens) (UniProt P19793); assay: Agonist activity at RXRalpha-LBD expressed in HEK293 cells assessed as Gal4-DBD interaction by cellular mammalian one hybrid assay relative to retinoic acid
T6 sequence (whole entry): T4 sequence (P19793 whole entry)

SMILES | Efficacy [1] [%] | Efficacy [2] [%] | Efficacy [3] [%] | EC50 [4] [µM] | Efficacy [5] [%] | Efficacy [6] [%]
CN(Cc1ccc(C(=O)O)cc1)c1ccc(OCc2c(-c3c(Cl)cccc3Cl)noc2C2CC2)nc1C(F)(F)F | 0 | 0 | 0 | > 10 | 60 | 0
CN(Cc1cccc(C(=O)O)c1)c1ccc(OCc2c(-c3c(Cl)cccc3Cl)noc2C2CC2)nc1C(F)(F)F | 0 | 0 | 0 | > 10 | 43 | 0
CC(C)c1onc(-c2c(Cl)cccc2Cl)c1COc1ccc(N(C)Cc2ccc(C(=O)O)cc2)c(C(F)(F)F)n1 | 0 | 0 | 0 | > 10 | 57 | 0
